In the supplement of paper PMC11061612:

What was measured:
Test in all cases: combination Emax (second highest fraction inhibited in the dose matrix, 72 h); higher = more inhibition; extreme values may be limits of the assay
[1] = test system: NTERA-2-cl-D1 (Other Solid Carcinomas)
Method in brief: (§1)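 After 24 hours at 37°C and 5% CO2 in 1536-well plates, cells in DMEM/F12 or RPMI plus 10% FBS received two-drug dose matrices for 72 hours. Viability came from CellTiter-Glo 2.0 luminescence and was scaled as inhibition, anchored at 0 by vehicle wells and at 1 by blank wells. Combination Emax is taken as the second-highest inhibition in the matrix, and Bliss excess as the observed combination effect less EA + EB − EA·EB, with EA and EB the single-agent effects.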

[2] = test system: NCI-H1435 (Non-Small Cell Lung Carcinoma)
Method in brief: as §1

SK-MEL-24 (Melanoma) = test system: SK-MEL-24 (Melanoma)
Method in brief: as §1

[3] = test system: SBC-3 (Small Cell Lung Carcinoma)
Method in brief: as §1

[4] = test system: NCI-H835 (Other Solid Carcinomas)
Method in brief: as §1

[5] = test system: MRK-nu-1 (Breast Carcinoma)
Method in brief: as §1

[6] = test system: SW1463 (Colorectal Carcinoma)
Method in brief: as §1

[7] = test system: OVKATE (Ovarian Carcinoma)
Method in brief: as §1

MG-63 (Osteosarcoma) = test system: MG-63 (Osteosarcoma)
Method in brief: as §1

[8] = test system: BC-1 (B-Cell Non-Hodgkin's Lymphoma)
Method in brief: as §1

[9] = test system: CAL-85-1 (Breast Carcinoma)
Method in brief: as §1

[10] = test system: COR-L105 (Lung Adenocarcinoma)
Method in brief: as §1

NCI-H2452 (Mesothelioma) = test system: NCI-H2452 (Mesothelioma)
Method in brief: as §1

[11] = test system: SUP-HD1 (Hodgkin's Lymphoma)
Method in brief: as §1

[12] = test system: C2BBe1 (Colorectal Carcinoma)
Method in brief: as §1

[13] = test system: SBC-5 (Small Cell Lung Carcinoma)
Method in brief: as §1

[14] = test system: RS4-11 (B-Lymphoblastic Leukemia)
Method in brief: as §1

[15] = test system: IGROV-1 (Ovarian Carcinoma)
Method in brief: as §1

[16] = test system: JURL-MK1 (Chronic Myelogenous Leukemia)
Method in brief: as §1

[17] = test system: HT-3 (Cervical Carcinoma)
Method in brief: as §1

| Compound | combination Emax [1] | combination Emax [2] | combination Emax (SK-MEL-24 (Melanoma)) | combination Emax [3] | combination Emax [4] | combination Emax [5] | combination Emax [6] | combination Emax [7] | combination Emax (MG-63 (Osteosarcoma)) | combination Emax [8] | combination Emax [9] | combination Emax [10] | combination Emax (NCI-H2452 (Mesothelioma)) | combination Emax [11] | combination Emax [12] | combination Emax [13] | combination Emax [14] | combination Emax [15] | combination Emax [16] | combination Emax [17] |
| --- | --- | --- | --- | --- | --- | --- | --- | --- | --- | --- | --- | --- | --- | --- | --- | --- | --- | --- | --- | --- |
| C=CCn1c(=O)c2cnc(Nc3ccc(N4CCN(C)CC4)cc3)nc2n1-c1cccc(C(C)(C)O)n1 [AZD1775] + CCc1c2c(nc3ccc(O)cc13)-c1cc3c(c(=O)n1C2)COC(=O)[C@]3(O)CC [SN-38] (first compound max 1 µM, partner max 0.3 µM) | 0.682 | 0.547 | 0.806 | 0.946 | 0.668 | 0.81 | 0.587 | 0.336 | 0.968 | 1 | 0.799 | 0.478 | 0.675 | – | – | – | – | – | – | – |
| Cc1c2c(nn1C)CSCc1cc(n(C)n1)CSc1cc(c3ccccc3c1)OCCCc1c(C(=O)O)n(C)c3c-2c(Cl)ccc13 [AZD5991] + CS(=O)(=O)CCNCc1ccc(-c2ccc3ncnc(Nc4ccc(OCc5cccc(F)c5)c(Cl)c4)c3c2)o1 [Lapatinib] (first compound max 1 µM, 7x7, partner max 10 µM) | 0.487 | 0.219 | 0.806 | 0.28 | 0.332 | 1 | 0.51 | 0.307 | 0.157 | 1 | 0.825 | 0.688 | 0.414 | – | – | – | – | – | – | – |
| O=C(c1cc(Cc2n[nH]c(=O)c3ccccc23)ccc1F)N1CCN(C(=O)C2CC2)CC1 [Olaparib] + CN(CC[C@H](CSC1=CC=CC=C1)NC2=C(C=C(C=C2)S(=O)(=O)NC(=O)C3=CC=C(C=C3)N4CCC(CC4)[C@H](C5=CC=CC=C5C6=CC=C(C=C6)Cl)O)S(=O)(=O)C(F)(F)F)CCO [AZD4320] (first compound max 10 µM, 7x7, partner max 1 µM) | 0.689 | 0.729 | 0.177 | 0.842 | 0.951 | 0.395 | 0.333 | 0.168 | 0.332 | 0.348 | 0.342 | 0.219 | 0.182 | – | – | – | – | – | – | – |
| CN(CCO)CC[C@H](CSc1ccccc1)Nc1ccc(S(=O)(=O)NC(=O)c2ccc(N3CCC([C@@H](O)c4ccccc4-c4ccc(Cl)cc4)CC3)cc2)cc1S(=O)(=O)C(F)(F)F [AZD4320] + CS(=O)(=O)CCNCc1ccc(-c2ccc3ncnc(Nc4ccc(OCc5cccc(F)c5)c(Cl)c4)c3c2)o1 [Lapatinib] (first compound max 1 µM, 7x7, partner max 10 µM) | 0.965 | 0.953 | 0.942 | 0.407 | 0.982 | 0.387 | 0.974 | 0.677 | 0.596 | 0.961 | 0.957 | 0.917 | 0.581 | – | – | – | – | – | – | – |
| Cc1c2c(nn1C)CSCc1cc(n(C)n1)CSc1cc(c3ccccc3c1)OCCCc1c(C(=O)O)n(C)c3c-2c(Cl)ccc13 [AZD5991] + CC(=O)O[C@H]1C(=O)[C@@]2(C)[C@H]([C@H](OC(=O)c3ccccc3)[C@]3(O)C[C@H](OC(=O)[C@H](O)[C@@H](NC(=O)c4ccccc4)c4ccccc4)C(C)=C1C3(C)C)[C@]1(OC(C)=O)CO[C@@H]1C[C@@H]2O [Paclitaxel] (first compound max 1 µM, 7x7, partner max 3 µM) | 0.614 | 0.219 | 0.692 | 0.952 | 0.453 | 1 | 0.527 | 0.217 | 0.88 | 1 | 0.806 | 0.183 | 0.838 | – | – | – | – | – | – | – |
| CC1(C)CCC(CN2CCN(c3ccc(C(=O)NS(=O)(=O)c4ccc(NCC5CCOCC5)c([N+](=O)[O-])c4)c(Oc4cnc5[nH]ccc5c4)c3)CC2)=C(c2ccc(Cl)cc2)C1 [Venetoclax] + CN(C)CCCOc1ccc(-c2ccc3ncc4c(c3c2)n(C2CCOCC2)c(=O)n4C)cn1 [AZD0156] (first compound max 1 µM, 7x7, partner max 1 µM) | 0.755 | 0.17 | 0.281 | 0.766 | – | 0.132 | 0.0973 | 0.208 | 0.217 | 0.555 | 0.136 | 0.186 | 0.277 | 0.761 | 0.253 | 0.163 | 1 | 0.535 | 0.262 | 0.145 |
| Cc1c2c(nn1C)CSCc1cc(n(C)n1)CSc1cc(c3ccccc3c1)OCCCc1c(C(=O)O)n(C)c3c-2c(Cl)ccc13 [AZD5991] + CCN(CCO)CCCOc1ccc2c(Nc3cc(CC(=O)Nc4cccc(F)c4)[nH]n3)ncnc2c1 [AZD2811] (first compound max 1 µM, 7x7, partner max 1 µM) | 0.821 | 0.313 | 0.362 | 0.531 | – | 1 | 0.268 | 0.253 | 0.232 | 1 | 0.267 | 0.262 | 0.452 | 0.787 | 0.277 | 0.78 | 0.991 | 0.346 | 0.901 | 0.907 |
| CN(C)CCCOc1ccc(-c2ccc3ncc4c(c3c2)n(C2CCOCC2)c(=O)n4C)cn1 [AZD0156] + CCN(CCO)CCCOc1ccc2c(Nc3cc(CC(=O)Nc4cccc(F)c4)[nH]n3)ncnc2c1 [AZD2811] (first compound max 1 µM, 7x7, partner max 1 µM) | 0.469 | 0.101 | 0.16 | 0.409 | – | 0.631 | 0.108 | 0.127 | 0.285 | 0.752 | 0.104 | 0.167 | 0.221 | 0.48 | 0.114 | 0.313 | 0.979 | 0.539 | 0.554 | 0.0658 |
| CN(CCO)CC[C@H](CSc1ccccc1)Nc1ccc(S(=O)(=O)NC(=O)c2ccc(N3CCC([C@@H](O)c4ccccc4-c4ccc(Cl)cc4)CC3)cc2)cc1S(=O)(=O)C(F)(F)F [AZD4320] + CN(C)CCCOc1ccc(-c2ccc3ncc4c(c3c2)n(C2CCOCC2)c(=O)n4C)cn1 [AZD0156] (first compound max 1 µM, 7x7, partner max 1 µM) | 0.416 | 0.651 | 0.252 | 0.163 | – | 0.164 | 0.233 | 0.29 | 0.136 | 0.17 | 0.29 | 0.261 | 0.246 | 0.961 | 0.188 | 0.102 | 1 | 0.611 | 0.825 | 0.143 |
| CC1(C)CCC(CN2CCN(c3ccc(C(=O)NS(=O)(=O)c4ccc(NCC5CCOCC5)c([N+](=O)[O-])c4)c(Oc4cnc5[nH]ccc5c4)c3)CC2)=C(c2ccc(Cl)cc2)C1 [Venetoclax] + C1CN(CCC1(C(=O)N[C@@H](CCO)C2=CC=C(C=C2)Cl)N)C3=NC=NC4=C3C=CN4 [Capivasertib] (first compound max 1 µM, 7x7, partner max 3 µM) | 0.692 | 0.154 | 0.361 | 0.543 | – | 0.288 | 0.11 | 0.199 | 0.317 | 0.523 | 0.161 | 0.23 | 0.272 | 0.877 | 0.362 | 0.188 | 1 | 0.738 | 0.291 | 0.0784 |
| CC1(C)CCC(CN2CCN(c3ccc(C(=O)NS(=O)(=O)c4ccc(NCC5CCOCC5)c([N+](=O)[O-])c4)c(Oc4cnc5[nH]ccc5c4)c3)CC2)=C(c2ccc(Cl)cc2)C1 [Venetoclax] + C[C@@H](Nc1cc(F)cc(F)c1)c1cc(C(=O)N(C)C)cc2c(=O)cc(N3CCOCC3)oc12 [AZD8186] (first compound max 1 µM, 7x7, partner max 3 µM) | 0.805 | 0.203 | 0.321 | 0.507 | – | 0.175 | 0.152 | 0.262 | 0.143 | 0.264 | 0.146 | 0.24 | 0.268 | 0.839 | 0.318 | 0.163 | 1 | 0.668 | 0.095 | 0.0586 |
| CC(=O)Nc1cccc(-n2c(=O)n(C3CC3)c(=O)c3c(Nc4ccc(I)cc4F)n(C)c(=O)c(C)c32)c1 [Trametinib] + Cc1nc(-c2cn3c(n2)-c2ccc(-c4cnn(C(C)(C)C(N)=O)c4)cc2OCC3)n(C(C)C)n1 [Taselisib] (first compound max 1 µM, 7x7, partner max 10 µM) | 0.666 | 0.896 | 0.997 | 0.703 | – | 0.814 | 0.785 | 0.583 | 0.674 | 0.546 | 0.975 | 0.9 | 0.617 | 0.616 | 0.916 | 0.784 | 0.35 | 0.966 | 1 | 0.673 |
